US20240123078A1, “COMPOUNDS AND METHODS FOR MODULATING IMMUNE-RELATED PROTEINS” (Vividion Therapeutics, Inc., priority 2019, published 2024)

Experiments:
[1] = target: T1, STAT3 Signal transducer and activator of transcription 3 C259 (P40763) (Homo sapiens, UniProt P40763); test: Cysteine reactivity ABPP; type: binding
T1 construct: endogenous in cells; host or cells: primary human T cells
Procedure: (§1) Activated or expanded primary human T cells were re-suspended in RPMI (1×10^6 cells/mL) containing 10% fetal bovine serum (FBS), penicillin (100 U/mL), streptomycin ([…]), and L-glutamine (2 mM). The cells were treated with DMSO or compounds for 3 h, pelleted (524 g, 5 min), washed with PBS, and lysed by sonication (2×8 pulses). Soluble and particulate proteomic fractions were separated by ultracentrifugation (100,000 g, 45 min), and protein concentration was normalized to 1.7 mg/mL using a standard DC protein assay (Bio-Rad). The resulting proteomes were analyzed by competitive isotopic Tandem Orthogonal Proteolysis Activity-Based Protein Profiling (isoTOP-ABPP).
(§2) The heavy/light isoTOP-ABPP ratios (R values) for each unique peptide (DMSO/compound treated) were quantified with in-house CIMAGE software (Weerapana et al., 2010) using default parameters (3 MS1 acquisitions per peak and signal to noise threshold set to 2.5). Site-specific engagement of cysteine residues was assessed by blockade of IA-alkyne probe labeling. […] Ratios for unique peptide sequences were calculated for each experiment; overlapping peptides with the same modified cysteine (e.g., different charge states, elution times or tryptic termini) were grouped together and the median ratio was reported as the final ratio (R). Additionally, ratios for peptide sequences containing multiple cysteines were grouped together. When aggregating data across experimental replicates, the mean of each experimental median R was reported. The peptide ratios reported by CIMAGE were further filtered to ensure the removal or correction of low-quality ratios in each individual dataset. The quality filters applied were the following: removal of half-tryptic peptides, removal of peptides with more than one tryptic miscleaved, removal of peptides with R=20 and only a single MS2 event triggered during the elution of the parent ion, removal of non-unique peptides. Further filtering was then performed as described below for each experiment type.
(§3) Samples (500 μL, 1.7 mg/mL) were treated with iodoacetamide desthiobiotin (IA-DTB, 5 μL of 10 mM stock in DMSO, final concentration: 100 μM) for 1 h at ambient temperature. Ice-cold MeOH (500 μL) and CHCl3 (200 μL) were then added, the mixture was vortexed and centrifuged (10,000 g, 10 min, 4° C.) to afford a protein disc at the interface of CHCl3 and aqueous layers. Both layers were aspirated without perturbing the disk, which was re-suspended in cold methanol (500 μL) and CHCl3 (200 μL) by sonication. The proteins were pelleted (10,000 g, 10 min, 4° C.), and the resulting pellets were re-suspended in a buffer (90 μL) containing 9M urea, 10 mM DTT and 50 mM triethylammonium bicarbonate ( 1/20 dilution of 1.0 M stock solution, pH 8.5) by thorough pipetting up and down. The resulting mixture was heated at 65° C. for 20 min. Sample was cooled to room temp, iodoacetamide (10 μL, 500 mM solution in H2O) was added, and the samples were incubated at 37° C. for 30 min with shaking.
(§4) At individual TMT experiment level, the following filters were applied to remove low-quality peptides: removal of non-unique peptides; removal of half-tryptic peptides; removal of peptides with more than one internal miscleaved site; removal of peptides with low (<10,000) sum of reporter ion intensities for control channels, and peptides with high variation between the replicate control channels (coefficient of variance >0.5). R values (compound-treated vs. DMSO-treated) for each peptide entry were calculated using the reporter ion intensities of DMSO and compound treated TMT channels for each treatment group with a maximum ratio cap of 20. […]

[2] = target: T2, ACAT1 Acetyl-CoA acetyltransferase, mitochondrial C119 (P24752) (Homo sapiens, UniProt P24752); test: Cysteine reactivity ABPP; type: binding
T2 construct: endogenous in cells; host or cells: primary human T cells
T2 sequence (P24752 34-427): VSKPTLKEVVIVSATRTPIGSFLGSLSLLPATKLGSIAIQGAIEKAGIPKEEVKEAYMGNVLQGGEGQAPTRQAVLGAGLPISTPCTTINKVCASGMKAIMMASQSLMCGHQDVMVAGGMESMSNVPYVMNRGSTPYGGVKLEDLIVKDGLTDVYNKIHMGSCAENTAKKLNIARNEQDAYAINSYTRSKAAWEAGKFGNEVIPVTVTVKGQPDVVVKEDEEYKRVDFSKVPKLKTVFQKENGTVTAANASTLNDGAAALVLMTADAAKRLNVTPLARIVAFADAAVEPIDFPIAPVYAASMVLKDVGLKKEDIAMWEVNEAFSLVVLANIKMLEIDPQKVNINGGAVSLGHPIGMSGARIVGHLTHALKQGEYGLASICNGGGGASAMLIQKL
Procedure: as §1, §2, §3, §4

[3] = target: T3, TYK2 Non-receptor tyrosine-protein kinase TYK2 C838 (P29597) (Homo sapiens, UniProt P29597); test: Cysteine reactivity ABPP; type: binding
T3 construct: endogenous in cells; host or cells: primary human T cells
Procedure: as §1, §2, §3, §4

[4] = target: T4, JAK1 Tyrosine-protein kinase JAK1 C810, C817 (P23458) (Homo sapiens, UniProt P23458); test: Cysteine reactivity ABPP; type: binding
T4 construct: endogenous in cells; host or cells: primary human T cells
Procedure: as §1, §2, §3, §4

[5] = target: T5, STAT3 Signal transducer and activator of transcription 3 C712, C718 (P40763) (Homo sapiens, UniProt P40763); test: Cysteine reactivity ABPP; type: binding
T5 construct: endogenous in cells; host or cells: primary human T cells
Procedure: as §1, §2, §3, §4

[6] = target: T6, PTPN11 Tyrosine-protein phosphatase non-receptor type 11 C259 (Q06124) (Homo sapiens, UniProt Q06124); test: Cysteine reactivity ABPP; type: binding
T6 construct: endogenous in cells; host or cells: primary human T cells
T6 sequence (Q06124 1-593): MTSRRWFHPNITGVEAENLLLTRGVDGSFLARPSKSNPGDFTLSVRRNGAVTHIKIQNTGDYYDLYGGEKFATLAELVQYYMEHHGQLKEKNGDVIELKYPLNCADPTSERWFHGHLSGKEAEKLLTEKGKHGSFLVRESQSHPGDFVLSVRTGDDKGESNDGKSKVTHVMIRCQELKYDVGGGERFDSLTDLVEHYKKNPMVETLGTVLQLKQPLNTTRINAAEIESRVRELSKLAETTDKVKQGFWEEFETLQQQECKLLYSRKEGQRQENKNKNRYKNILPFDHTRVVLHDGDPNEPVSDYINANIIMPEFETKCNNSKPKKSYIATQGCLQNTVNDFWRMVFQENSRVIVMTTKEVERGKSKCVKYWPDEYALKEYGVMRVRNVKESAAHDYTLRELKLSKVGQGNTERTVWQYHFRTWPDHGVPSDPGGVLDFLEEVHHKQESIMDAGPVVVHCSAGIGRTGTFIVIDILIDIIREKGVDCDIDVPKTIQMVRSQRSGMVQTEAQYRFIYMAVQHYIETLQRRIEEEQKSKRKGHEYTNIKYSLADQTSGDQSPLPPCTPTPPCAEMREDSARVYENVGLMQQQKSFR
Procedure: as §1, §2, §3, §4

[7] = target: T7, PFKFB3 6-phosphofructo-2-kinase/fructose-2,6-bisphosphatase 3 C155 (Q16875) (Homo sapiens, UniProt Q16875); test: Cysteine reactivity ABPP; type: binding
T7 construct: endogenous in cells; host or cells: primary human T cells
Procedure: as §1, §2, §3, §4

[8] = target: T8, CBLB E3 ubiquitin-protein ligase CBL-B C686 (Q13191) (Homo sapiens, UniProt Q13191); test: Cysteine reactivity ABPP; type: binding
T8 construct: endogenous in cells; host or cells: primary human T cells
Procedure: as §1, §2, §3, §4

BIRC2 (C45) = target: T9, BIRC2 (C45) (Homo sapiens, UniProt Q13490); test: isoTOP-ABPP of elaborated compound data (DMF datasets); type: binding; details: maximal ratio of 20 = ≥95% reduction in MS1 peak area
T9 construct: endogenous in cells; host or cells: primary human T cells
Procedure: as §1
(§5) The heavy/light isoTOP-ABPP ratios (R values) for each unique peptide (DMSO/compound treated) were quantified with in-house CIMAGE software (Weerapana et al., 2010) using default parameters (3 MS1 acquisitions per peak and signal to noise threshold set to 2.5). Site-specific engagement of cysteine residues was assessed by blockade of IA-alkyne probe labeling. […] Ratios for unique peptide sequences were calculated for each experiment; overlapping peptides with the same modified cysteine (e.g., different charge states, elution times or tryptic termini) were grouped together and the median ratio was reported as the final ratio (R). […]

CASP2 (C366, C370) = target: T10, CASP2 (C366, C370) (Homo sapiens, UniProt P42575); test: as above; type: binding; details: maximal ratio of 20 = ≥95% reduction in MS1 peak area
T10 construct: Soluble and particulate proteomic fractions were separated by ultracentrifugation; endogenous in cells; host or cells: primary human T cells
T10 sequence (P42575 1-452): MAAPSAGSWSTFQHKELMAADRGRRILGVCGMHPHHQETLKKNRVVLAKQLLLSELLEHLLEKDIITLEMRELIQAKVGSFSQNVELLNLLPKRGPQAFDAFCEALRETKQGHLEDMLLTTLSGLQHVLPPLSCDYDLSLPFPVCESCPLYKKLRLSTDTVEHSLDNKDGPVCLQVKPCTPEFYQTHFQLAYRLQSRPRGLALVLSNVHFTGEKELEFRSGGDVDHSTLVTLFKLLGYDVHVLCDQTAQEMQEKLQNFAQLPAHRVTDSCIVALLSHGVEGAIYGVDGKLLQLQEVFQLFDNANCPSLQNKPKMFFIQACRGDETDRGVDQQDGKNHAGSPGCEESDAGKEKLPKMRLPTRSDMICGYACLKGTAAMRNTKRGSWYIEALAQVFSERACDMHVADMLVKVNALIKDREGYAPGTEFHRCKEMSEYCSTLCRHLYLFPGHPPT
Procedure: as §1, §5

primary human T cells = test: Multidimensional screen for inhibition of T cell activation; type: cell-based
Procedure: Non-tissue culture treated 96-well plates are pre-coated with αCD3 (5 μg/mL) and αCD28 antibodies (2 μg/mL) in PBS (100 μL/well) and left at 4° C. overnight. Freshly isolated T cells are re-suspended in RPMI media supplemented with 10% FBS, L-glutamine (2 mM), penicillin (100 U/mL), and streptomycin (100 μg/mL) at 2×10^6 cells/mL. Compound stocks (200×) in DMSO are diluted to 2× stocks in the working RPMI media in another 96-well plate. The pre-coated 96-well treatment plates are washed with PBS (2×200μL), T cells (100 μL/well, 2×10^5 cells/well) are then added to the wells, followed by the addition of 2× compound stocks in RPMI media (100 μL). […]
The levels of secreted IL2, IFNγ and TNFα after incubating T cells in the presence of DMSO or electrophilic compounds under TCR-stimulating conditions are measured using DuoSet ELISA cytokine kits (R&D Systems) in clear microplates (R&D Systems) according to manufacturer's instructions and read using a CLARIOstar (BMG Labtech) plate reader (450 nm).
A multidimensional screen can be preformed of a focused library of structurally elaborated electrophilic small molecules to identify compounds that suppress T cell activation at low-μM concentrations without causing cytotoxicity. […] The viability of T cells can be monitored by flow cytometry using near-IR live-dead stain.

T8 sequence (Q13191 whole entry): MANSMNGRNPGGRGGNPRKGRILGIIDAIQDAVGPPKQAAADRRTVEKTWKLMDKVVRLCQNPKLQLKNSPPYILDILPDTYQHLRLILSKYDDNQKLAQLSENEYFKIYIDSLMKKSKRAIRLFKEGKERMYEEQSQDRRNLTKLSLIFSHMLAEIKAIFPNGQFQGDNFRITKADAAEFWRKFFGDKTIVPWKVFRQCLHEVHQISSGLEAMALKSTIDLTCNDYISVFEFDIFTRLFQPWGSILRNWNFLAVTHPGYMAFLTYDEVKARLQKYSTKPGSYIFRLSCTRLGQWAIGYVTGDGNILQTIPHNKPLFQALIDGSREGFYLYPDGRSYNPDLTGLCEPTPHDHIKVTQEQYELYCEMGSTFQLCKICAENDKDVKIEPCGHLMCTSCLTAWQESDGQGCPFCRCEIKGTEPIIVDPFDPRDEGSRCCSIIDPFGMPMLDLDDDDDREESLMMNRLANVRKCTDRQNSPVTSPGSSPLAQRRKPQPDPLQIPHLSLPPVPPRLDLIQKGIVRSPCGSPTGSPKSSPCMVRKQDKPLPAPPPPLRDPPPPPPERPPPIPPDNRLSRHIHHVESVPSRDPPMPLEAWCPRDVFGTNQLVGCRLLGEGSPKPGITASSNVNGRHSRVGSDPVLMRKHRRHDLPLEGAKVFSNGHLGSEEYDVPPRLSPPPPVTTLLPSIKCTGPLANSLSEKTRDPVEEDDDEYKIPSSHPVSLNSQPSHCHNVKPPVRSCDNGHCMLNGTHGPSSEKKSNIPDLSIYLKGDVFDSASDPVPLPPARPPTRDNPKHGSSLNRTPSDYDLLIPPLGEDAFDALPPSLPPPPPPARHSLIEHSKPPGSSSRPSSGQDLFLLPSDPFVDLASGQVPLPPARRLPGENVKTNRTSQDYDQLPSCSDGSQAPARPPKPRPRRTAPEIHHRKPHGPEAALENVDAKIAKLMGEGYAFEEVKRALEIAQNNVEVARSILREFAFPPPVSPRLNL
T4 sequence (P23458 whole entry): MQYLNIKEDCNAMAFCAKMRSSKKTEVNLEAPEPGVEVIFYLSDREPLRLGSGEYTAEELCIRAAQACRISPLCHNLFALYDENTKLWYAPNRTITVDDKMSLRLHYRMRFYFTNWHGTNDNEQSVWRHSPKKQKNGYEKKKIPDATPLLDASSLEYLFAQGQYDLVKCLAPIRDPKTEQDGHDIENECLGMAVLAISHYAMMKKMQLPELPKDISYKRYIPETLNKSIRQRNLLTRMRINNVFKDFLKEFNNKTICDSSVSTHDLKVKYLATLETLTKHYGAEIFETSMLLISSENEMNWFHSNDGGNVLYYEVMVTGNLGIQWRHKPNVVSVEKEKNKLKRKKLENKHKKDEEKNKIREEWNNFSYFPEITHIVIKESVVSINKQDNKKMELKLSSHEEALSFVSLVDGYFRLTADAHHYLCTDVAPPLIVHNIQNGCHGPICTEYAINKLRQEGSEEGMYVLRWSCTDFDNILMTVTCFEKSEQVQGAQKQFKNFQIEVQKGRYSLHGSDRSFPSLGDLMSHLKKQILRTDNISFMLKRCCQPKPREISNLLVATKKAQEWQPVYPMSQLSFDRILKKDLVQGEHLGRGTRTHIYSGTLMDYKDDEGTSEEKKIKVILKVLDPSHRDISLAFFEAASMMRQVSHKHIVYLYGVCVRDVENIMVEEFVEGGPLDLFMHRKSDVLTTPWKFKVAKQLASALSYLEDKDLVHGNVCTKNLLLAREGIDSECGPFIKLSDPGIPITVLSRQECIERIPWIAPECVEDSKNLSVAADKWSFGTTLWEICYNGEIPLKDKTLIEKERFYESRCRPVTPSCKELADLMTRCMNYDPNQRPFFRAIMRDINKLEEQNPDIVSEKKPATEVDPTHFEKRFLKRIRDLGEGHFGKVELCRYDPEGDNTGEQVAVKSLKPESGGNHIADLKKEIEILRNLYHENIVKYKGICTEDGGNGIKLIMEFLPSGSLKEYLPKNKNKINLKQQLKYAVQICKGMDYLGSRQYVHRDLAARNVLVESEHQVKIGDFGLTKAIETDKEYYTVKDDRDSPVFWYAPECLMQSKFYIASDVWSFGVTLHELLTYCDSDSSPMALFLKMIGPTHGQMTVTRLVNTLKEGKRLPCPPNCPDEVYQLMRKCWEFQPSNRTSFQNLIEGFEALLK
T7 sequence (Q16875 whole entry, one chain of several): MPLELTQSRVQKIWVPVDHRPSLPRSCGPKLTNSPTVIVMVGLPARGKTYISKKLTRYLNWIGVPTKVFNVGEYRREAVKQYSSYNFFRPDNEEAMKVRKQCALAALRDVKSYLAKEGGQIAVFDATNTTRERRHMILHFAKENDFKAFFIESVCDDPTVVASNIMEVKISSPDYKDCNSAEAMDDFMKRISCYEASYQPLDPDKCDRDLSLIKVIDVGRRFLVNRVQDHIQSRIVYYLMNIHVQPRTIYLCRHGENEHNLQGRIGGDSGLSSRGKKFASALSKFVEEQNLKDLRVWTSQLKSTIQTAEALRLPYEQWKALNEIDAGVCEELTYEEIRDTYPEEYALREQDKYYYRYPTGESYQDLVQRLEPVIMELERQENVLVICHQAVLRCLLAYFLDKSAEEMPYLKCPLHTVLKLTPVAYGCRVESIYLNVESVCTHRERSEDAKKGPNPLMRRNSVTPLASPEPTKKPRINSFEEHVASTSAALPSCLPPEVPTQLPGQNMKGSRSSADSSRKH
T3 sequence (P29597 whole entry): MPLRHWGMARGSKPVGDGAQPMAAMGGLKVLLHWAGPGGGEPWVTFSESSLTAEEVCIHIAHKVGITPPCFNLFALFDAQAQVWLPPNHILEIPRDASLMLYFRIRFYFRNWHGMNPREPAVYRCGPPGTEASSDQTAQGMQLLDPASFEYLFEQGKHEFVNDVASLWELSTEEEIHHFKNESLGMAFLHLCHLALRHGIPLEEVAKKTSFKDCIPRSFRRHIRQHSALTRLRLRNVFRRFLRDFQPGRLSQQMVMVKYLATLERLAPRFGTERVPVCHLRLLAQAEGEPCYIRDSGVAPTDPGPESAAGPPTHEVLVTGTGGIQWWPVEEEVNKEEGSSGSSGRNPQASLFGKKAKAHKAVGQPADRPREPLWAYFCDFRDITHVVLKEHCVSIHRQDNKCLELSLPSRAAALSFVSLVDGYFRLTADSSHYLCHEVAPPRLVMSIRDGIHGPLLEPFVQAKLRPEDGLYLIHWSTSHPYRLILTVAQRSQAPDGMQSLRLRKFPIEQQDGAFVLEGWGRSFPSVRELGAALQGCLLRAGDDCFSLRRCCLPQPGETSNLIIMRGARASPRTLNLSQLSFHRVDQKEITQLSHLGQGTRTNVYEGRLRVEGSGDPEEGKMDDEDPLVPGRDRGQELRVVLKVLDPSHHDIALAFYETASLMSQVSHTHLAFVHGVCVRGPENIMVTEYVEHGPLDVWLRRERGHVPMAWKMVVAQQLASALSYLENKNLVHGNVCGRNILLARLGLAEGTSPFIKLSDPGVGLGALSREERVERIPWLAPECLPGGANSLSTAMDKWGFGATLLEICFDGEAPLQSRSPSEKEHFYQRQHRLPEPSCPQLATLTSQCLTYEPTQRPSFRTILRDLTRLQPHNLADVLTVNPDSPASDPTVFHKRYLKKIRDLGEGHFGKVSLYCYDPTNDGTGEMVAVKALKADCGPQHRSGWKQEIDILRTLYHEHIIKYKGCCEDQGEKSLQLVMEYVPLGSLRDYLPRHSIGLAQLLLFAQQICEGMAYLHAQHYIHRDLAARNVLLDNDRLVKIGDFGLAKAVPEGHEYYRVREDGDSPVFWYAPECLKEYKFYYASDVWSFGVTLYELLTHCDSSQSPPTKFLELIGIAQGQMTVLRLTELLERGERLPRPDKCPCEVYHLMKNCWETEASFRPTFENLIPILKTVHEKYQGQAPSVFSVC
T5 sequence (P40763 whole entry, one chain of several): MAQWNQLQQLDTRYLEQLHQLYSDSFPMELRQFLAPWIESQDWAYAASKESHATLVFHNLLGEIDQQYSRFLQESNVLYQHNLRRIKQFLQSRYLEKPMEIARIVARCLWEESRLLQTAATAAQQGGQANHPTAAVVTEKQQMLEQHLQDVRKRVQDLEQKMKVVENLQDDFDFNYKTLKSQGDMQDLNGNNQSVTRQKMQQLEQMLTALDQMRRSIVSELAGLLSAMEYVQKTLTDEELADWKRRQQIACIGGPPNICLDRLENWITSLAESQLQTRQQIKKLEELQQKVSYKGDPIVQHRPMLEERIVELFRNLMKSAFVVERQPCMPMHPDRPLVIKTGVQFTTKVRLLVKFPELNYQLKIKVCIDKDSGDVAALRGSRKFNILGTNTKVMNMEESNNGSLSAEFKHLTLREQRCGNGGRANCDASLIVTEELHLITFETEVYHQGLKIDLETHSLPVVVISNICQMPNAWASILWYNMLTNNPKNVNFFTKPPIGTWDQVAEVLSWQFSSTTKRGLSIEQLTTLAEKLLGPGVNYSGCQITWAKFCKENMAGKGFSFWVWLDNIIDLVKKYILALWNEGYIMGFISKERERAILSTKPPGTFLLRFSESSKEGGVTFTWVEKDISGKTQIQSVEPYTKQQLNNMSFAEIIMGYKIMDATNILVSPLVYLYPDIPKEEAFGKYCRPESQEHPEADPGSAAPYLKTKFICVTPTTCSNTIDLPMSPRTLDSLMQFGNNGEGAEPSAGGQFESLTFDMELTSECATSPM
T1 sequence (P40763 whole entry, one chain of several): as above

SMILES	Cysteine reactivity proteomic data ([1]; 100 μM)	Cysteine reactivity proteomic data ([1]; 500 μM)	Cysteine reactivity proteomic data ([2]; 100 μM)	Cysteine reactivity proteomic data ([2]; 500 μM)	Cysteine reactivity proteomic data ([3]; 100 μM)	Cysteine reactivity proteomic data ([3]; 500 μM)	Cysteine reactivity proteomic data ([4]; 100 μM)	Cysteine reactivity proteomic data ([4]; 500 μM)	Cysteine reactivity proteomic data ([5]; 100 μM)	Cysteine reactivity proteomic data ([5]; 500 μM)	Cysteine reactivity proteomic data ([6]; 100 μM)	Cysteine reactivity proteomic data ([6]; 500 μM)	Cysteine reactivity proteomic data ([7]; 100 μM)	Cysteine reactivity proteomic data ([7]; 500 μM)	Cysteine reactivity proteomic data ([8]; 100 μM)	Cysteine reactivity proteomic data ([8]; 500 μM)	isoTOP-ABPP ratio R (DMSO/compound treated) (BIRC2 (C45))	isoTOP-ABPP ratio R (DMSO/compound treated) (CASP2 (C366, C370))	suppress T cell activation (primary human T cells; anti-CD3/anti-CD28 activation, measured 24 h later by reductions in secreted IL-2, IFN-γ and CD69, CD25 expression) [%]	viability of T cells (primary human T cells; flow cytometry, near-IR live-dead stain) [%]
C=CC(=O)N(Cc1cccc(Cl)n1)c1ccc(C(=O)Nc2ccccc2)nc1 [Compound L4]	58.1986	57.1888	−14.9577	58.3081	96.4386	98.2637	94.3358	99.489	42.1791	80.6157	50.0993	72.8049	81.7564	89.0944	4.7619	84.7455				
CN(C)C=O [DMF]																	20	20	> 65	> 85
